From patent publication US11971383B1, “Enhanced 3D porous architectured electroactive devices via impregnated porogens” (Iowa State University Research Foundation, Inc., priority 2018, dated 2024)

Target: T1, Acetylcholinesterase (ACHE) (Electrophorus electricus, UniProt O42275)
T1 construct: purchased Sigma Aldrich
Assay: ACHE biosensor inhibition versus incubation time (decrease in amperometric oxidation current)
Assay type: biochemical
Details: 1 μM paraoxon, 5 mM ACTH, 400 mV
Procedure: Sodium chloride (NaCl) was purchased from Sigma-Aldrich, ground using mortar and pestle, and filtered into different sizes with 8 in wire cloth sieves. Acetylcholinesterase (ACHE) from Electrophorus electricus was purchased from Sigma Aldrich as lyophilized powder (200-1000 units per mg) and was used without any further purification. ACHE ink aliquots were made by dissolving the enzyme (2 mg) in 1 mL of 50% glycerol and 50% 1× phosphate-buffer solution (0.1 M PBS, pH 7.0), aliquoted into 25 μL, and stored in a −80° C. freezer until use. […]. All other chemicals and solvents were purchased from Sigma-Aldrich and were used without any other purification unless otherwise stated. Water was filtered through a B-Pure Water Purification system (resistivity, […]).
SIIML electrodes were functionalized with ACHE using 1-ethyl-3-(3-dimethylaminopropyl) carbodiimide and N-hydroxysuccinimide (EDC/NHS) chemistry, which facilitated the functionalization of carboxyl groups to the amines within the ACHE enzyme.^39 In summary, the CO2 laser annealed SIIML electrodes were dipped in a solution of EDC/NHS mixture (50 mM EDC, 50 mM NHS) and incubated for 30 min on a tilter mixer. The electrodes were then rinsed with 1×PBS, excess water was blown off but not completely dried as the surface remained still “wetted”, this allowed for easier pipetting onto the slightly hydrophobic graphene surface. […]

T1 sequence (O42275 24-633): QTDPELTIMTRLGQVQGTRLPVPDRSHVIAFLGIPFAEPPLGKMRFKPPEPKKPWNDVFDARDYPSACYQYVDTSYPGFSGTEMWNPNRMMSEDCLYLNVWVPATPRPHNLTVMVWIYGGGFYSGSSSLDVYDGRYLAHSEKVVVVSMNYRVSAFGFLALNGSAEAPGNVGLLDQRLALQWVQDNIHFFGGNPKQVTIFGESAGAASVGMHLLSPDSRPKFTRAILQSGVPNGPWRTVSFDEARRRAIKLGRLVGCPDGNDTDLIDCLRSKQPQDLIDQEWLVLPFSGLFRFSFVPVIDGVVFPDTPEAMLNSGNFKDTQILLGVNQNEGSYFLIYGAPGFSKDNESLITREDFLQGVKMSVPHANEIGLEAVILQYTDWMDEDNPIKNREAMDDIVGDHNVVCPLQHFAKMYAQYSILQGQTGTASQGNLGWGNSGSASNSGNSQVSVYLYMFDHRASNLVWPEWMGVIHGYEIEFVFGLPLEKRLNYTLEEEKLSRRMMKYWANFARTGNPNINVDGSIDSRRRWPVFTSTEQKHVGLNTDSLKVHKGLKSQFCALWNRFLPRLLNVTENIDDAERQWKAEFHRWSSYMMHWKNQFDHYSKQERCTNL

For `CCOP(=O)(OCC)Oc1ccc([N+](=O)[O-])cc1` [paraoxon], the “inhibition of the sensor (percent of ACHE inhibited)” value (after 100 seconds incubation, large standard deviations) was “roughly 50%” and the “inhibition of the sensor (percent of ACHE inhibited)” value (after 500 seconds incubation, low standard deviation) was “about 90%”.
